Consider one compound from ChEMBL document CHEMBL5726269, “Phosphonate compounds for treatment of complement mediated disorders” (2017).

SMILES strings stand for the structures. pIC50: −log10 of the molar value.

The target of the test is Complement factor D (Homo sapiens, UniProt P00746). The experiment in a line: Human Factor D Assay: Human factor D (purified from human serum, Complement Technology, Inc.) at 80 nM final concentration is incubated with test compound at various concentrations for 5 minutes at room temperature in 50 mM Tris, 1M NaCl, pH 7.5. A synthetic substrate Z-L-Lys-SBzl and DTNB (Ellman's reagent) are added to final concentrations of 100 μM each. The increase in color is recorded at OD405 nm in a microplate in kinetic mode over 30 minutes with 30 second time points in a spectrofluorimeter. IC50 values are calculated by non-linear regression from the percentage of inhibition of complement factor D activity as a function of test compound concentration.
Chain of Complement factor D (P00746 whole entry): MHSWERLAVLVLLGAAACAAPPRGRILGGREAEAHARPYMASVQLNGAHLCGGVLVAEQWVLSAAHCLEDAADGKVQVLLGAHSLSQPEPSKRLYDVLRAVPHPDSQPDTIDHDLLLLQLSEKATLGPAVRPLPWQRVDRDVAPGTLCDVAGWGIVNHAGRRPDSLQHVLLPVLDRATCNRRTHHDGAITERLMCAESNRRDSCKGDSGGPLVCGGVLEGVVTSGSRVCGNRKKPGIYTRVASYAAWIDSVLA

In general, pIC50 refers to the IC50 on a negative log10 scale, so that one unit is a factor of ten.

Regarding `CC(=O)c1cn(CC(=O)N2C[C@H](F)C[C@H]2C(=O)NCc2cccc(Cl)c2F)c2cc(P(=O)(Oc3ccccc3)Oc3ccccc3)ccc12`, the pIC50 was above 6.00.
